Assay results reported in patent US6737383B1, “Herbicidal oxadiazolidines” (priority 1999, dated 2004).

How the values were obtained:
sugar beet = assay: Test B pre/postemergence sugar beet; format: in vivo, Beta vulgaris; details: for Sugarbeets plant response rating: scale of 0 to 10 where 0 is no effect and 10 is complete control
In short: (§1)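 Herbicidal effect was estimated by eye on a ten-point control scale after plants spent twelve to sixteen days in a greenhouse following soil or foliar treatment. Foliar sprays targeted plants at one to four leaves; all doses were formulated in a non-phytotoxic solvent with surfactant.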

corn = assay: Test B pre/postemergence corn; format: in vivo, Zea mays; details: for Corn plant response rating: scale of 0 to 10 where 0 is no effect and 10 is complete control
In short: as §1

smallflower flatsedge = assay: Test B flood test smallflower flatsedge; format: in vivo, Cyperus difformis
In short: (§2)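 Read-out is a visual response score from 0 (no effect) to 10 (complete control), assigned by comparison with untreated controls. Treatment was applied at the 2-leaf stage, and plants stayed in the greenhouse for twelve to sixteen days before scoring.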

rape = assay: Test B pre/postemergence rape; format: in vivo, Brassica napus; details: for Rape plant response rating: scale of 0 to 10 where 0 is no effect and 10 is complete control
In short: as §1

bamyardgrass = assay: Test B flood test barnyardgrass; format: in vivo, Echinochloa crus-galli
In short: as §2

surinam grass = assay: Test B pre/postemergence surinam grass; format: in vivo, Brachiaria decumbens; details: for B. signalgrass plant response rating: scale of 0 to 10 where 0 is no effect and 10 is complete control
In short: as §1

blackgrass = assay: Test B pre/postemergence blackgrass; format: in vivo, Alopecurus myosuroides; details: for Blackgrass plant response rating: scale of 0 to 10 where 0 is no effect and 10 is complete control
In short: as §1

rice = assay: Test B flood test rice; format: in vivo, Oryza sativa
In short: as §2

wild oat = assay: Test B pre/postemergence wild oat; format: in vivo, Avena fatua; details: for Wild oats plant response rating: scale of 0 to 10 where 0 is no effect and 10 is complete control
In short: as §1

velvetleaf = assay: Test B pre/postemergence velvetleaf; format: in vivo, Abutilon theophrasti; details: for Velvetleaf plant response rating: scale of 0 to 10 where 0 is no effect and 10 is complete control
In short: as §1

duck salad = assay: Test B flood test duck salad; format: in vivo, Heteranthera limosa
In short: as §2

crabgrass = assay: Test B pre/postemergence crabgrass; format: in vivo, Digitaria sanguinalis; details: for Crabgrass plant response rating: scale of 0 to 10 where 0 is no effect and 10 is complete control
In short: as §1

giant foxtail = assay: Test B pre/postemergence giant foxtail; format: in vivo, Setaria faberii; details: for Giant foxtail plant response rating: scale of 0 to 10 where 0 is no effect and 10 is complete control
In short: as §1

bedstraw = assay: Test B pre/postemergence bedstraw; format: in vivo, Galium aparine; details: Preemergence
In short: as §1

wheat = assay: Test B pre/postemergence wheat; format: in vivo, Triticum aestivum; details: for Wheat plant response rating: scale of 0 to 10 where 0 is no effect and 10 is complete control
In short: as §1

purple nutsedge = assay: Test B pre/postemergence purple nutsedge; format: in vivo, Cyperus rotundus; details: for Nutsedge plant response rating: scale of 0 to 10 where 0 is no effect and 10 is complete control
In short: as §1

[1] = Postemergence, Rate 125 g/ha, scale 0 to 10, 0 is no effect, 10 is complete control
[2] = Postemergence, Rate 250 g/ha, scale 0 to 10, 0 is no effect, 10 is complete control
[3] = Preemergence, Rate 62 g/ha, scale 0 to 10 (0 no effect, 10 complete control)
[4] = Rate 500 g/ha, Postemergence, scale 0 to 10, 0 no effect, 10 complete control
[5] = Postemergence (flood test), Rate 125 g/ha, scale 0 to 10, 0 is no effect, 10 is complete control
[6] = Rate 62 g/ha, Postemergence (flood test species), scale of 0 to 10 where 0 is no effect and 10 is complete control
[7] = Rate 62 g/ha, flood test species, Pre-emergence, visual evaluation after twelve to sixteen days
[8] = Rate 125 g/ha, Pre-emergence, flood test species, scale 0 to 10 where 0 is no effect and 10 is complete control
[9] = Rate 250 g/ha, Pre-emergence, flood-test species, scale 0 to 10, 0 is no effect, 10 is complete control
[10] = Rate 500 g/ha, listed under Postemergence (flood test species), scale 0 to 10, 0 no effect, 10 complete control
[11] = Rate 500 g/ha, Pre-emergence, flood test species, scale 0 to 10 (0 no effect, 10 complete control)
[12] = flood test species, listed under Postemergence, Rate 250 g/ha, scale 0 to 10, 0 is no effect, 10 is complete control

CC1CC1n1c(=O)on(C(=O)N(c2ccccc2)C(C)C)c1=O (centres unmarked) [Compound 370]
Plant response rating, Sugarbeets (sugar beet; [1]): 0
Plant response rating, Sugarbeets (sugar beet; [2]): 0
Plant response rating, Sugarbeets (sugar beet; [3]): 2
Sugarbeets plant response rating (0 to 10 scale) (sugar beet; Preemergence, Rate 125 g/ha): 3
Sugarbeets plant response rating (sugar beet; Preemergence, Rate 250 g/ha): 5
Sugarbeets plant response rating (sugar beet; Rate 62 g/ha, Postemergence): 0
Plant response rating, Sugarbeets (sugar beet; [4]): 0
Plant response rating, Corn (corn; [1]): 0
Plant response rating, Corn (corn; [2]): 0
Plant response rating, Corn (corn; [3]): 0
Corn plant response rating (0 to 10 scale) (corn; Preemergence, Rate 125 g/ha): 2
Corn plant response rating (corn; Preemergence, Rate 250 g/ha): 4
Corn plant response rating (corn; Preemergence, Rate 500 g/ha): 9
Corn plant response rating (corn; Rate 62 g/ha, Postemergence): 0
Plant response rating, Corn (corn; [4]): 5
Plant response rating, S. Flatsedge (smallflower flatsedge; [5]): 3
S. Flatsedge plant response rating (smallflower flatsedge; [6]): 2
Plant response rating, S. Flatsedge (0 to 10 scale, 0 is no effect, 10 is complete control) (smallflower flatsedge; [7]): 0
S. Flatsedge plant response rating (smallflower flatsedge; [8]): 0
S. Flatsedge plant response rating (smallflower flatsedge; [9]): 0
Plant response rating, S. Flatsedge (smallflower flatsedge; [10]): 7
S. Flatsedge plant response rating (smallflower flatsedge; [11]): 0
Plant response rating, S. Flatsedge (smallflower flatsedge; [12]): 4
Plant response rating, Rape (rape; [1]): 0
Plant response rating, Rape (rape; [2]): 2
Plant response rating, Rape (rape; [3]): 0
Rape plant response rating (0 to 10 scale) (rape; Preemergence, Rate 125 g/ha): 0
Rape plant response rating (rape; Preemergence, Rate 250 g/ha): 6
Rape plant response rating (rape; Preemergence, Rate 500 g/ha): 10
Rape plant response rating (rape; Rate 62 g/ha, Postemergence): 0
Plant response rating, Rape (rape; [4]): 3
Plant response rating, Barnyardgrass (bamyardgrass; [5]): 0
Barnyardgrass plant response rating (bamyardgrass; [6]): 0
Plant response rating, Barnyardgrass (0 to 10 scale, 0 is no effect, 10 is complete control) (bamyardgrass; [7]): 0
Barnyardgrass plant response rating (bamyardgrass; [8]): 0
Barnyardgrass plant response rating (bamyardgrass; [9]): 0
Plant response rating, Barnyardgrass (bamyardgrass; [10]): 2
Barnyardgrass plant response rating (bamyardgrass; [11]): 0
Plant response rating, Barnyardgrass (bamyardgrass; [12]): 0
Plant response rating, B. signalgrass (surinam grass; [1]): 2
Plant response rating, B. signalgrass (surinam grass; [2]): 4
Plant response rating, B. signalgrass (surinam grass; [3]): 0
B. signalgrass plant response rating (0 to 10 scale, 0 is no effect, 10 is complete control) (surinam grass; Preemergence, Rate 125 g/ha): 0
B. signalgrass plant response rating (surinam grass; Preemergence, Rate 250 g/ha): 2
B. signalgrass plant response rating (surinam grass; Preemergence, Rate 500 g/ha): 5
B. signalgrass plant response rating (surinam grass; Rate 62 g/ha, Postemergence): 0
Plant response rating, B. signalgrass (surinam grass; [4]): 6
Plant response rating, Blackgrass (blackgrass; [1]): 4
Plant response rating, Blackgrass (blackgrass; [2]): 4
Plant response rating, Blackgrass (blackgrass; [3]): 6
Blackgrass plant response rating (0 to 10 scale) (blackgrass; Preemergence, Rate 125 g/ha): 8
Blackgrass plant response rating (blackgrass; Preemergence, Rate 250 g/ha): 9
Blackgrass plant response rating (blackgrass; Preemergence, Rate 500 g/ha): 10
Blackgrass plant response rating (blackgrass; Rate 62 g/ha, Postemergence): 2
Plant response rating, Blackgrass (blackgrass; [4]): 5
Plant response rating, Rice (rice; [5]): 0
Rice plant response rating (rice; [6]): 0
Plant response rating, Rice (0 to 10 scale, 0 is no effect, 10 is complete control) (rice; [7]): 0
Rice plant response rating (rice; [8]): 0
Rice plant response rating (rice; [9]): 0
Plant response rating, Rice (rice; [10]): 2
Rice plant response rating (rice; [11]): 0
Plant response rating, Rice (rice; [12]): 2
Plant response rating, Wild oats (wild oat; [1]): 0
Plant response rating, Wild oats (wild oat; [2]): 3
Plant response rating, Wild oats (wild oat; [3]): 0
Wild oats plant response rating (0 to 10 scale) (wild oat; Preemergence, Rate 125 g/ha): 0
Wild oats plant response rating (wild oat; Preemergence, Rate 250 g/ha): 2
Wild oats plant response rating (wild oat; Preemergence, Rate 500 g/ha): 10
Wild oats plant response rating (wild oat; Rate 62 g/ha, Postemergence): 0
Plant response rating, Wild oats (wild oat; [4]): 5
Plant response rating, Velvetleaf (velvetleaf; [1]): 0
Plant response rating, Velvetleaf (velvetleaf; [2]): 0
Plant response rating, Velvetleaf (velvetleaf; [3]): 2
Velvetleaf plant response rating (0 to 10 scale) (velvetleaf; Preemergence, Rate 125 g/ha): 4
Velvetleaf plant response rating (velvetleaf; Preemergence, Rate 250 g/ha): 5
Velvetleaf plant response rating (velvetleaf; Preemergence, Rate 500 g/ha): 6
Velvetleaf plant response rating (velvetleaf; Rate 62 g/ha, Postemergence): 0
Plant response rating, Velvetleaf (velvetleaf; [4]): 4
Plant response rating, Ducksalad (duck salad; [5]): 2
Ducksalad plant response rating (duck salad; [6]): 0
Plant response rating, Ducksalad (0 to 10 scale, 0 is no effect, 10 is complete control) (duck salad; [7]): 0
Ducksalad plant response rating (duck salad; [8]): 0
Ducksalad plant response rating (duck salad; [9]): 0
Plant response rating, Ducksalad (duck salad; [10]): 3
Ducksalad plant response rating (duck salad; [11]): 0
Plant response rating, Ducksalad (duck salad; [12]): 3
Plant response rating, Crabgrass (crabgrass; [1]): 7
Plant response rating, Crabgrass (crabgrass; [2]): 7
Plant response rating, Crabgrass (crabgrass; [3]): 7
Crabgrass plant response rating (0 to 10 scale) (crabgrass; Preemergence, Rate 125 g/ha): 8
Crabgrass plant response rating (crabgrass; Preemergence, Rate 250 g/ha): 9
Crabgrass plant response rating (crabgrass; Preemergence, Rate 500 g/ha): 10
Crabgrass plant response rating (crabgrass; Rate 62 g/ha, Postemergence): 3
Plant response rating, Crabgrass (crabgrass; [4]): 9
Plant response rating, Giant foxtail (giant foxtail; [1]): 8
Plant response rating, Giant foxtail (giant foxtail; [2]): 8
Plant response rating, Giant foxtail (giant foxtail; [3]): 9
Giant foxtail plant response rating (0 to 10 scale) (giant foxtail; Preemergence, Rate 125 g/ha): 10
Giant foxtail plant response rating (giant foxtail; Preemergence, Rate 250 g/ha): 10
Giant foxtail plant response rating (giant foxtail; Preemergence, Rate 500 g/ha): 10
Giant foxtail plant response rating (giant foxtail; Rate 62 g/ha, Postemergence): 6
Plant response rating, Giant foxtail (giant foxtail; [4]): 9
Plant response rating, Bedstraw (bedstraw; Rate 62 g/ha, scale 0 to 10 (0 no effect, 10 complete control)): 0
Bedstraw plant response rating (0 to 10 scale) (bedstraw; Rate 125 g/ha): 3
Bedstraw plant response rating (bedstraw; Rate 250 g/ha, scale of 0 to 10 where 0 is no effect and 10 is complete control): 3
Plant response rating, Wheat (wheat; [1]): 0
Plant response rating, Wheat (wheat; [2]): 0
Plant response rating, Wheat (wheat; [3]): 0
Wheat plant response rating (0 to 10 scale) (wheat; Preemergence, Rate 125 g/ha): 0
Wheat plant response rating (wheat; Preemergence, Rate 250 g/ha): 2
Wheat plant response rating (wheat; Preemergence, Rate 500 g/ha): 7
Wheat plant response rating (wheat; Rate 62 g/ha, Postemergence): 0
Plant response rating, Wheat (wheat; [4]): 3
Plant response rating, Nutsedge (purple nutsedge; [1]): 0
Plant response rating, Nutsedge (purple nutsedge; [2]): 0
Plant response rating, Nutsedge (purple nutsedge; [3]): 0
Nutsedge plant response rating (0 to 10 scale) (purple nutsedge; Preemergence, Rate 125 g/ha): 0
Nutsedge plant response rating (purple nutsedge; Preemergence, Rate 250 g/ha): 5
Nutsedge plant response rating (purple nutsedge; Preemergence, Rate 500 g/ha): 10
Nutsedge plant response rating (purple nutsedge; Rate 62 g/ha, Postemergence): 0
Plant response rating, Nutsedge (purple nutsedge; [4]): 5
